Consider 29 molecules from patent US20170226081A1, “GLUCOSE TRANSPORT INHIBITORS” (Bayer Pharma Aktiengesellschaft, priority 2014, published 2017).

As a reminder, the IC50 is the concentration needed to halve the response being measured.

The target in this experiment is T1, GLUT1 (Homo sapiens, UniProt P11166).
T1 construct: endogenous in cells
T1 sequence (P11166 1-492): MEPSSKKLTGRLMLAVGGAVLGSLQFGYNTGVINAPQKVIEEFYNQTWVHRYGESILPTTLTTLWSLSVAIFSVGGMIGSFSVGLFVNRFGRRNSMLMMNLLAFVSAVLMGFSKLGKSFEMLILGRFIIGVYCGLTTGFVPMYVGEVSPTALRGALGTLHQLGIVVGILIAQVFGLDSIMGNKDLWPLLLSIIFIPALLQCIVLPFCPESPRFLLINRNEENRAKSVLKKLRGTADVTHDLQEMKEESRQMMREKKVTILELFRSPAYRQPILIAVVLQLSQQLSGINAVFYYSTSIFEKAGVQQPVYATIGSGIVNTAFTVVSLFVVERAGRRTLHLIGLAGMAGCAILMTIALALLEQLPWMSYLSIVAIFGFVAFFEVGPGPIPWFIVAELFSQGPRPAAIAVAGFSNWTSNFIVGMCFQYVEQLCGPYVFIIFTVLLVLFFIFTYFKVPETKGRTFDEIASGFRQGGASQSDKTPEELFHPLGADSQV
Kind of experiment: Indirect measurement of GLUT activity by quantification of intracellular ATP levels (glucose induced ATP increase). To be noted: DLD1 cells; 1 mM glucose, 1 uM Rotenone, 15 min; standardized to cytochalasin B IC50 values; read-out: IC50 regarding glucose induced ATP increase (GLUT1 inhibition). The format is cell-based. The text has this:
It is well known that a combination of small-molecule inhibitors of mitochondrial electron transport chain and glucose catabolism synergistically suppress ATP production and impair cellular viability (Ulanovskaya et al., 2008, 2011; Liu, et al. 2001). We therefore used DLD1 or CHO-K1 cells in combination with an oxidative phosphorylation inhibitor to identify GLUT inhibitors. Cell lines were maintained in DMEM medium supplemented with 10% FCS and 1% Penicillin-Streptomycin solution and 2% Glutamax. The cells were treated with trypsin and seeded into 384 plates at a density of 4000 cells/well. The cells were then cultured overnight in glucose free media containing 1% FCS to reduce intracellular ATP levels. After 24 h the cells were incubated at 37° C. containing the appropriate glucose or in case of GLUT2 fructose concentration (1 mM and 30 mM respectively) with or without compounds and 1 uM Rotenone for 15 min. The CellTiter-Glo® Luminescent Cell Viability Assay from Promega was then used to measure ATP levels. Compounds able to reduce the ATP Levels within 15 min of glucose application were considered to be glucose uptake inhibitors.

For `CC(c1ccc(C#N)cc1)n1cc(NC(=O)c2cc(C(N)=O)nc3ccccc23)c(C(F)(F)F)n1` (racemic) [Example 40, (±)—N^4-{1-[1-(4-cyanophenyl)ethyl]-3-(trifluoromethyl)-1H-pyrazol-4-yl}quinoline-2,4-dicarboxamide], the IC50 came to 32 nM. `Cc1nn(Cc2ccc(F)cc2)cc1NC(=O)c1cc(C(F)(F)F)nc2cc(F)c(F)cc12` [Example 2, 6,7-difluoro-N-[1-(4-fluorobenzyl)-3-methyl-1H-pyrazol-4-yl]-2-(trifluoromethyl)quinoline-4-carboxamide]: the IC50 stood at 505 nM. The result for `COc1cc(C(=O)Nc2cn(Cc3ccc(F)cc3)nc2C)c2ccccc2n1` [Example 3, N-[1-(4-fluorobenzyl)-3-methyl-1H-pyrazol-4-yl]-2-methoxyquinoline-4-carboxamide] reads 150 nM; that for `Cc1nn(Cc2ccc(F)cc2)cc1NC(=O)c1cc(C(F)(F)F)nc2ccc(Br)cc12` [Example 4, 6-bromo-N-[1-(4-fluorobenzyl)-3-methyl-1H-pyrazol-4-yl]-2-(trifluoromethyl)quinoline-4-carboxamide], 111 nM; that for `Cc1nn(Cc2ccc(F)cc2)cc1NC(=O)c1cc(C(N)=O)nc2ccccc12` [Example 5, N^4-[1-(4-fluorobenzyl)-3-methyl-1H-pyrazol-4-yl]quinoline-2,4-dicarboxamide], 15 nM. As to `Cc1nn(Cc2ccc(F)cc2)cc1NC(=O)c1cc(C2CC2)nc2ccc(F)cc12` [Example 6, 2-cyclopropyl-6-fluoro-N-[1-(4-fluorobenzyl)-3-methyl-1H-pyrazol-4-yl]quinoline-4-carboxamide], the IC50 is 125 nM. In the case of `Cc1nn(Cc2ccc(F)cc2)cc1NC(=O)c1cc(C(F)(F)F)nc2c(Cl)cc(Cl)cc12` [Example 7, 6,8-dichloro-N-[1-(4-fluorobenzyl)-3-methyl-1H-pyrazol-4-yl]-2-(trifluoromethyl)quinoline-4-carboxamide], the IC50 came to 176 nM.

With `Cc1nn(Cc2ccc(C#N)cc2)cc1NC(=O)c1cc(C(F)(F)F)nc2ccc(Br)cc12` [Example 8, 6-bromo-N-[1-(4-cyanobenzyl)-3-methyl-1H-pyrazol-4-yl]-2-(trifluoromethyl)quinoline-4-carboxamide], the IC50 was 21 nM. Turning to `COc1cc(C(=O)Nc2cn(Cc3ccc(C#N)cc3)nc2C)c2ccccc2n1` [Example 10, N-[1-(4-cyanobenzyl)-3-methyl-1H-pyrazol-4-yl]-2-methoxyquinoline-4-carboxamide], the IC50 amounted to 79 nM. Regarding `COc1ccc(Cn2cc(NC(=O)c3cc(OC)nc4ccccc34)c(C)n2)cc1` [Example 11, 2-methoxy-N-[1-(4-methoxybenzyl)-3-methyl-1H-pyrazol-4-yl]quinoline-4-carboxamide], the IC50 was 21 nM. To `COc1ccc(Cn2cc(NC(=O)c3cc(C(F)(F)F)nc4ccc(Br)cc34)c(C)n2)cc1` [Example 12, 6-bromo-N-[1-(4-methoxybenzyl)-3-methyl-1H-pyrazol-4-yl]-2-(trifluoromethyl)quinoline-4-carboxamide] belongs 29 nM; to `COc1ccc(Cn2cc(NC(=O)c3cc(C(N)=O)nc4ccccc34)c(C)n2)cc1` [Example 13, N^4-[1-(4-methoxybenzyl)-3-methyl-1H-pyrazol-4-yl]quinoline-2,4-dicarboxamide], 2.3 nM. To `Cc1nn(Cc2ccccc2C#N)cc1NC(=O)c1cc(C(F)(F)F)nc2ccc(Br)cc12` [Example 14, 6-bromo-N-[1-(2-cyanobenzyl)-3-methyl-1H-pyrazol-4-yl]-2-(trifluoromethyl)quinoline-4-carboxamide] belongs 97 nM; to `COc1cc(C(=O)Nc2cn(Cc3ccccc3C#N)nc2C)c2ccccc2n1` [Example 15, N-[1-(2-cyanobenzyl)-3-methyl-1H-pyrazol-4-yl]-2-methoxyquinoline-4-carboxamide], 116 nM. Regarding `Cc1nn(Cc2ccccc2C#N)cc1NC(=O)c1cc(C(N)=O)nc2ccccc12` [Example 16, N^4-[1-(2-cyanobenzyl)-3-methyl-1H-pyrazol-4-yl]quinoline-2,4-dicarboxamide], the IC50 was 137 nM. `COC(=O)c1nn(Cc2ccc(F)cc2)cc1NC(=O)c1cc(C(F)(F)F)nc2ccc(Br)cc12` [Example 17, methyl 4-({[6-bromo-2-(trifluoromethyl)quinolin-4-yl]carbonyl}amino)-1-(4-fluorobenzyl)-1H-pyrazole-3-carboxylate]: the IC50 was 64 nM. As to `O=C(O)c1nn(Cc2ccc(F)cc2)cc1NC(=O)c1cc(C(F)(F)F)nc2ccc(Br)cc12` [Example 18, 4-({[6-bromo-2-(trifluoromethyl)quinolin-4-yl]carbonyl}amino)-1-(4-fluorobenzyl)-1H-pyrazole-3-carboxylic acid], the IC50 was 6.5 nM. With `CN(C)C(=O)c1nn(Cc2ccc(F)cc2)cc1NC(=O)c1cc(C(F)(F)F)nc2ccc(Br)cc12` [Example 19, 6-bromo-N-[3-(dimethylcarbamoyl)-1-(4-fluorobenzyl)-1H-pyrazol-4-yl]-2-(trifluoromethyl)quinoline-4-carboxamide], the IC50 was determined as 20 nM. The result for `O=C(NCCO)c1nn(Cc2ccc(F)cc2)cc1NC(=O)c1cc(C(F)(F)F)nc2ccc(Br)cc12` [Example 20, 6-bromo-N-{1-(4-fluorobenzyl)-3-[(2-hydroxyethyl)carbamoyl]-1H-pyrazol-4-yl}-2-(trifluoromethyl)quinoline-4-carboxamide] reads 2000 nM; that for `NC(=O)c1nn(Cc2ccc(F)cc2)cc1NC(=O)c1cc(C(F)(F)F)nc2ccc(Br)cc12` [Example 21, 6-bromo-N-[3-carbamoyl-1-(4-fluorobenzyl)-1H-pyrazol-4-yl]-2-(trifluoromethyl)quinoline-4-carboxamide], 1150 nM; that for `CNC(=O)c1nn(Cc2ccc(F)cc2)cc1NC(=O)c1cc(C(F)(F)F)nc2ccc(Br)cc12` [Example 22, 6-bromo-N-[1-(4-fluorobenzyl)-3-(methylcarbamoyl)-1H-pyrazol-4-yl]-2-(trifluoromethyl)quinoline-4-carboxamide], 20100 nM. As for `COCCNC(=O)c1nn(Cc2ccc(F)cc2)cc1NC(=O)c1cc(C(F)(F)F)nc2ccc(Br)cc12` [Example 23, 6-bromo-N-{1-(4-fluorobenzyl)-3-[(2-methoxyethyl)carbamoyl]-1H-pyrazol-4-yl}-2-(trifluoromethyl)quinoline-4-carboxamide], the IC50 came to 20100 nM. For the molecule `COC(=O)c1nn(Cc2ccc(C#N)cc2)cc1NC(=O)c1cc(C(F)(F)F)nc2ccc(Br)cc12` [Example 24, methyl 4-({[6-bromo-2-(trifluoromethyl)quinolin-4-yl]carbonyl}amino)-1-(4-cyanobenzyl)-1H-pyrazole-3-carboxylate], the IC50 worked out at 1650 nM. `N#Cc1ccc(Cn2cc(NC(=O)c3cc(C(F)(F)F)nc4ccc(Br)cc34)c(C(=O)O)n2)cc1` [Example 25, 4-({[6-bromo-2-(trifluoromethyl)quinolin-4-yl]carbonyl}amino)-1-(4-cyanobenzyl)-1H-pyrazole-3-carboxylic acid]: the IC50 was 10200 nM. With `N#Cc1ccc(Cn2cc(NC(=O)c3cc(C(F)(F)F)nc4ccc(Br)cc34)c(C(=O)NCCO)n2)cc1` [Example 26, 6-bromo-N-{1-(4-cyanobenzyl)-3-[(2-hydroxyethyl)carbamoyl]-1H-pyrazol-4-yl}-2-(trifluoromethyl)quinoline-4-carboxamide], the IC50 was 7040 nM.

Take `CNC(=O)c1nn(Cc2ccc(C#N)cc2)cc1NC(=O)c1cc(C(F)(F)F)nc2ccc(Br)cc12` [Example 27, 6-bromo-N-[1-(4-cyanobenzyl)-3-(methylcarbamoyl)-1H-pyrazol-4-yl]-2-(trifluoromethyl)quinoline-4-carboxamide]: the IC50 worked out at 893 nM. `N#Cc1ccc(Cn2cc(NC(=O)c3cc(C(F)(F)F)nc4ccc(Br)cc34)c(C(N)=O)n2)cc1` [Example 28, 6-bromo-N-[3-carbamoyl-1-(4-cyanobenzyl)-1H-pyrazol-4-yl]-2-(trifluoromethyl)quinoline-4-carboxamide]: the IC50 is 544 nM. Turning to `CN(C)C(=O)c1nn(Cc2ccc(C#N)cc2)cc1NC(=O)c1cc(C(F)(F)F)nc2ccc(Br)cc12` [Example 29, 6-bromo-N-[1-(4-cyanobenzyl)-3-(dimethylcarbamoyl)-1H-pyrazol-4-yl]-2-(trifluoromethyl)quinoline-4-carboxamide], the IC50 was found to be 1700 nM. Consider `COCCNC(=O)c1nn(Cc2ccc(C#N)cc2)cc1NC(=O)c1cc(C(F)(F)F)nc2ccc(Br)cc12` [Example 30, 6-bromo-N-{1-(4-cyanobenzyl)-3-[(2-methoxyethyl)carbamoyl]-1H-pyrazol-4-yl}-2-(trifluoromethyl)quinoline-4-carboxamide], for which the IC50 was found to be 7490 nM.
